# In paper PMC3247980 (The Journal of Biological Chemistry, 2011):
# What was measured:
# [1] = target: T1, PfFT1 (Plasmodium falciparum, UniProt Q8IBB7); experiment: [3H]folinic acid uptake, Xenopus oocytes; type: cell-based; conditions: labelled compound, 40 min, pH 7.4, room temperature
# T1 sequence (Q8IBB7 1-505): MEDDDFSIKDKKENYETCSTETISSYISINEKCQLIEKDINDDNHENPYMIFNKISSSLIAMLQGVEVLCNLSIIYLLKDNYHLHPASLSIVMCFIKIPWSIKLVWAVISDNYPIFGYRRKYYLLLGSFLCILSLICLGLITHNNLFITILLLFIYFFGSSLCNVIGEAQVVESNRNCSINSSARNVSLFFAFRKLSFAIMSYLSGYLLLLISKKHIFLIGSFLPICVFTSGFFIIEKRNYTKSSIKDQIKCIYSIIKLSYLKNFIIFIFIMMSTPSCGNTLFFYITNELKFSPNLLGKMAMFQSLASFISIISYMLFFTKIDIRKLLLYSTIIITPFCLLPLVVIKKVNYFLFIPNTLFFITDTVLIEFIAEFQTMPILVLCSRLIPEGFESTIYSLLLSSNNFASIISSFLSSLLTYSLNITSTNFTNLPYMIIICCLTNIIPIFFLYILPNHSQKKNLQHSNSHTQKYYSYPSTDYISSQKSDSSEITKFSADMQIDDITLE
# [2] = target: T2, PfFT2 (Plasmodium falciparum, UniProt Q8IIK1); experiment: [3H]folinic acid uptake, Xenopus oocytes; type: cell-based; conditions: labelled compound, 40 min, pH 7.4, room temperature
# T2 sequence (Q8IIK1 1-455): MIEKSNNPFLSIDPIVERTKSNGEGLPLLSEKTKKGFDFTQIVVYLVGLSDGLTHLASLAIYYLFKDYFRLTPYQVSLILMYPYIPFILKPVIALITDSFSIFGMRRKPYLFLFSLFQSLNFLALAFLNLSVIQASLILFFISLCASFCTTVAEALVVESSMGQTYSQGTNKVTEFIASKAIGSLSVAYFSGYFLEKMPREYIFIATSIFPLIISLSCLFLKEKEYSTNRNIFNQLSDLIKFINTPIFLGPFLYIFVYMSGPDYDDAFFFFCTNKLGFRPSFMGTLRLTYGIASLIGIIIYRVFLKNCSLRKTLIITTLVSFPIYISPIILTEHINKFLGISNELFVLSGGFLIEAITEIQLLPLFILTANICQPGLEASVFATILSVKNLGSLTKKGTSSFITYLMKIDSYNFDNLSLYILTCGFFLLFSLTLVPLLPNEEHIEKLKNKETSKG
smiles,measurement,setting,value
Nc1nc(=O)c2c([nH]1)NCC(CNc1ccc(C(=O)N[C@@H](CCC(=O)O)C(=O)O)cc1)N2C=O (mixture of isomers) [folinic acid],"[3H]folinic acid uptake, Xenopus oocytes",[1],cRNA from PfFT1 and PfFT2 showed significantly higher uptake of [^3H]folinic acid
same,"[3H]folinic acid uptake, Xenopus oocytes",[2],cRNA from PfFT1 and PfFT2 showed significantly higher uptake of [^3H]folinic acid
